{"source": "paper PMC8131842", "about": "“Therapeutic Potential of Vasoactive Intestinal Peptide and its Derivative Stearyl-Norleucine-VIP in Inflammation-Induced Osteolysis” (Frontiers in Pharmacology, 2021)", "key": {"[1]": {"tested_on": "TiP-induced osteolysis on mouse calvaria", "assay": "TiP-induced osteolysis, mouse calvarial model (µCT)", "format": "in vivo"}, "[2]": {"tested_on": "M-CSF + RANKL treated pre-osteoclasts", "assay": "Osteoclastogenesis assay, direct effect in the absence of inflammation (TRAP staining)", "format": "cell-based, mouse", "details": "10^-6 M, no inflammation, TRAP-positive multinucleated osteoclasts after 5 days, n=5, p<0.01", "procedure": "Osteoclastogenesis assay. Preosteoclasts, prepared like the BMDMs, were plated in 96-well plates (7,000 cells per well, for TRAP staining, see below) or in 6-well plates (200,000 cells per well, for RNA) in standard medium supplemented with 20 ng/ml M-CSF and 50 ng/ml RANKL (R&D Systems, Minneapolis, MN, United States). After 48 h, the medium was replaced by the conditioned medium of BMDM, supplemented with RANKL and M-CSF. Where indicated, 10^−6 M SNV or VIP were added. […], cells were stained using a TRAP kit (Sigma-Aldrich, St. Louis, MO, United States), and multinucleated (>3 nuclei) TRAP-positive cells were defined as osteoclasts. Images were acquired at an original magnification of ×4 (Evos FLC, Life Technologies, MS, United States). The number of osteoclasts and the total osteoclast area were measured using ImageJ software (National Institutes of Health, Bethesda, MD, United States).\nFIGURE 3 Direct effect of VIP and SNV on osteoclastogenesis. (A) VPAC1 and (B) VPAC2 expression in M-CSF treated bone marrow-derived macrophages (Day 0) and M-CSF + RANKL treated pre-osteoclasts (Day 2) using RT-qPCR. […] (C-E) Osteoclastogenesis in the presence of 10^-6M VIP, SNV or vehicle only (control) performed in 96-well plates; TRAP-positive multinucleated osteoclasts were evaluated after 5 days of differentiation. […]"}, "[3]": {"details": "matrix not given, ref Gozes et al., 1994, 1996; cited from earlier work", "source_text": "(§1) VIP derivatives and conjugates were designed to include a lipophilic moiety or a shortened VIP chain ([Gozes and Fridkin, 1992]; [Gozes et al., 1994]; [Gozes et al., 1995]; [Gozes et al., 1996]; [Gozes et al., 1999]). Stearyl-norleucine-VIP (Stearyl-Nle^17VIP, SNV) is a lipophilic compound consisting of a VIP molecule with an N-terminal attachment of stearic acid to increase cell and tissue bioavailability and an exchange of the oxidation-vulnerable methionine at position 17 with the stable norleucine."}, "neuroprotection": {"tested_on": "neuroprotection", "details": "ref Ashur-Fabian et al., 1999; cited from earlier work", "source_text": "as §1"}, "rats [4]": {"tested_on": "rats", "assay": "Study 001–3 acute oral toxicity in rats", "format": "in vivo, rat", "procedure": "(§2) Toxicology. We performed toxicology studies for SNV that consisted of acute subcutaneous, intravenous and oral toxicity in rats, acute dermal toxicity in rabbits, skin sensitization using adjuvant and patch test in guinea pigs, and single and repeated (for 13 weeks) dose toxicity studies in rats. The latter was a 90-days repeated dose toxicity study, consisting of SNV once a day at three different doses to the penis and vagina of male and female rats, respectively. The compound was tested for the treatment of erectile dysfunction. The active dose (7 µg SNV) was chosen as the lowest dose for the study. The highest dosage group in the repeated dose toxicity study received 3,500 µg ([Gozes et al., 1994]). For study 001 (parts 1 through 3), the 1× dose consisted of 0.5 mg SNV dissolved in 7.1 ml vehicle (3.55 ml 10% Sefsol [glycerin monocaprylate] + 3.55 ml isopropanol) and 100µl/animal were administered; the 1000X dose consisted of 91 mg SNV dissolved in 1.3 ml vehicle (0.65 ml 10% Sefsol +0.65 ml isopropanol) and 100µl/animal were administered. For studies 002 through 004, the indicated doses of SNV (Table 1) were dissolved in 0.25 ml 10% Sefsol +0.25 ml 40% isopropanol (vehicle). The methodology for each of the toxicology studies is detailed in Table 1."}, "Guinea pigs": {"tested_on": "Guinea pigs", "assay": "Study 003 skin sensitization: adjuvant and patch test", "format": "in vivo, guinea pig", "details": "SNV 7 mg/animal (1000X)", "procedure": "as §2"}, "[5]": {"tested_on": "histidine auxotrophs of Salmonella typhimurium", "assay": "Study 005 mutagenic potential (Ames test)", "format": "cell-based", "procedure": "Although, the studies were not carried out under Good Laboratory Practices (GLP) stipulations, SNV was synthesized under GLP conditions, and all the work was carried out at Tel Aviv University under meticulous conditions using professional staff and established methods (in a designated air-conditioned, clean room and specific luminary flow hood), which all strengthen the trustworthiness of the study results. Ames tests were carried out by Life Science Research Israel Ltd. Ness Ziona, Israel."}, "rats [6]": {"tested_on": "rats", "assay": "Study 001–1 acute subcutaneous toxicity in rats", "format": "in vivo, rat", "procedure": "as §2"}, "albino female rabbits": {"tested_on": "albino female rabbits", "assay": "Study 002 acute dermal toxicity in rabbits", "format": "in vivo, rabbit", "details": "single dermal application, 7 mg/site (1000X)", "procedure": "as §2"}, "[7]": {"details": "oral, 7 µg/rat and 7 mg/rat groups"}, "[8]": {"details": "subcutaneous, 7 mg/rat (1000X, group 4)"}}}
{"substance": "Stearyl–HSDAVFTDNYTRLRKQ-Nle-AVKKYLNSILN-NH2 [SNV, Stearyl-norleucine-VIP, lipophilic VIP derivative with N-terminal stearic acid and norleucine in place of methionine at position 17]", "values": [{"measurement": "Calvaria thickness", "setting": "[1]; 2 × 10^–8 mol SNV in fibrinogen-thrombin membrane with TiP, 5 weeks, µCT", "value": "no significant differences"}, {"measurement": "Lowering of pit resorption volume (PRV) vs Ti", "setting": "[1]; mouse, in vivo", "value": 60, "unit": "%"}, {"measurement": "Lowering of pit resorption volume as percentage of the total tissue volume (PRV/TV) vs Ti", "setting": "[1]; mouse, in vivo", "value": 60, "unit": "%"}, {"measurement": "Osteoclast differentiation (osteoclast number and total area)", "setting": "[2]", "value": "comparable inhibitory effect"}, {"measurement": "Half-life", "setting": "[3]", "value": 15, "unit": "min"}, {"measurement": "Potency relative to VIP in neuroprotection", "setting": "neuroprotection", "value": 1000, "unit": "fold"}, {"measurement": "Acute median oral lethal dose", "setting": "rats [4]; oral by metal catheter, S.D. rats, 6 males + 6 females per group, 7 mg/rat = maximal practical dose", "value": "Under the conditions of this study, the acute median oral lethal dose of SNV was found to be greater the 7 mg/rat, which is the maximal practical dose"}, {"measurement": "Mortality", "setting": "rats [4]; [7]", "value": "None"}, {"measurement": "Reactions", "setting": "rats [4]; [7]", "value": "None"}, {"measurement": "Skin sensitization, conclusion", "setting": "Guinea pigs; adjuvant and patch test", "value": "The study was designed to assess the degree of skin sensitization resulting from intradermal Freund’s complete adjuvant and patch application of SNV. The study showed that both SNV and vehicle alone have no skin sensitization properties"}, {"measurement": "Mortality", "setting": "Guinea pigs; adjuvant and patch test, daily applications for 3 days", "value": "None"}, {"measurement": "Skin reactions", "setting": "Guinea pigs; intradermal Freund's complete adjuvant and patch application, daily applications for 3 days, 3 males + 3 females per group", "value": "only slight erythema and edema within the application site"}, {"measurement": "Revertant colony numbers over control", "setting": "[5]; 0.3 to 312.5 µg/plate", "value": "No significant increases in revertant colony numbers over control with test material at doses ranging from 0.3 to 312.5 µg/plate"}, {"measurement": "Mutagenic activity, conclusion", "setting": "[5]; 0.3–312.5 µg/standard bacterial plate", "value": "Under the conditions of this study, the test material, SNV was devoid of mutagenic activity"}, {"measurement": "Acute median lethal subcutaneous dose", "setting": "rats [6]; S.D. rats, 6 males + 6 females per group, single injection close to penile or vaginal tissue, 14 observation days, 7 mg/rat = maximal practical dose", "value": "Under the conditions of this study, the acute median lethal subcutaneous dose of SNV was found to be greater the 7 mg/rat, which is the maximal practical dose"}, {"measurement": "Mortality", "setting": "rats [6]; subcutaneous, 7 µg/rat (1×), 14 observation days", "value": "None"}, {"measurement": "Mortality", "setting": "rats [6]; subcutaneous, 7 mg/rat (1000X), 14 observation days", "value": "None"}, {"measurement": "Reactions: body weight", "setting": "rats [6]; [8]", "value": "significant weight loss until 8th day, returning to original weight on day 12–14"}, {"measurement": "Reactions: diarrhea", "setting": "rats [6]; [8]", "value": "Diarrhea in 2 males of group 4 (1000X) 5–24 after injection, lasting for 2 days"}, {"measurement": "Reactions: skin necrosis", "setting": "rats [6]; subcutaneous, affected treatment group(s) not specified", "value": "Necrosis of abdominal (male only) or penile skin on day 13–14 after injection"}, {"measurement": "Dermal irritation, conclusion", "setting": "albino female rabbits", "value": "Under the conditions of this study, single dermal application of the vehicle did not cause irritation. The 1000X dose transient effect was barely perceptible"}, {"measurement": "Mortality", "setting": "albino female rabbits; N = 4", "value": "None"}, {"measurement": "Rabbits with slight barely perceptible erythema", "setting": "albino female rabbits; N = 4, disappeared within 72 h following application", "value": 50, "unit": "%"}]}
